From patent US12558348B2, “Bioactive phytochemicals” (Phytoquest Limited, priority 2019, dated 2026)
Marks after values point to notes of the source that are not given here.

How the values were obtained:
TNF-α = TNF-α production by LPS-stimulated BV-2 microglial cells; assay type: cell-based, murine; conditions: 24 hours
Method: idoBR1 was used in cell cultures of murine microglial cell line BV-2 at 0, 20, 40 and 80 μg/ml plus and minus sub-optimal LPS. Production of TNF-α and nitrite was measured after 24 hours.

[1] = tested on: sialidase in human THP-1 (monocyte-like) cell cultures; experiment: Endogenous (lysosomal) sialidase activity in LPS-stimulated THP-1 cells; assay type: cell-based; conditions: for RFU / Sialidase activity/mg protein: 2 hrs then 16 hours LPS; for Relative sialidase activity/mg protein: 16 hours LPS, relative to LPS control = 1.00
Method: The THP-1 cells were cultured in RPMI media supplemented with mercaptoethanol & glutamine to get 80% confluence in culture flask, then aspirated and centrifuged at 1500 rpm for 5 mins. The cell pellet was then resuspended in 1 ml of RPMI complete media and counted conventionally using a Hemocytometer. The cells (5×106) were incubated with PMA (10 ng/ml) in separate dishes to differentiate THP-1 cells. […] […] Post incubation, the cells were used to determine the sialidase activity.
The THP-1 cells were washed with phosphate-buffered saline (PBS) and resuspended in ice-cold buffer containing 0.25 M sucrose, 1 mM EDTA, and 0.2 mM phenylmethylsulfonyl fluoride. The cell suspension was sonicated on ice for 15 s on a low setting (6% amplitude) (Vibracell™; Sonics and Materials Inc., Newtown, CT) followed by centrifugation at 25,000 g for 15 min at 4° C. The resulting supernatant was used to determine the lysosomal sialidase activity. Protein quantification of the supernatant was performed using the Bio-Rad protein determination kit as described above. For the determination of lysosomal sialidase activity, 200 μg of total protein was mixed with 40 nmol of 4-methylumbelliferyl-α-N-acetyl-D-neuraminic acid (Sigma), the lysosomal sialidase-specific substrate, 10 μmol sodium acetate buffer, pH 4.6, and 200 μg of bovine serum albumin in a total volume of 200 μl. The sialidase reaction was allowed to proceed for 1 h at 37° C. and was terminated by the addition of 0.25 M glycine NaOH, pH 10.4. Released 4-methylumbelliferone was measured fluorometrically (Synergy 2 multimode microplate reader) at an excitation wavelength of 365 nm and emission wavelength of 448 nm.

IL-12 = IL-12 ELISA in LPS stimulated THP-1 cells; assay type: cell-based, human; conditions: for % reduction in IL-12 levels: vs LPS control
Method: The cells in an 80% confluence culture flask were aspirated and centrifuged at 1500 rpm for 5 mins. The cell pellet was then resuspended in 1 ml of RPMI complete media and 1×10^5 cells/well seeded to each well of the 96 well microtiter plate. After 24 hrs incubation, PMA (10 ng/ml) was added to the 96 well plate to differentiate THP-1 cells to determine the TNF-α production, THP-1 cells were pretreated for 1 hr with idoBR1 or cucumber extract-Q-actin (batch no. […] Post incubation, the cell supernatant from each of the wells was aspirated into sterile micro centrifuge tubes and centrifuged at 1000 rpm for 2-3 mins. The cell supernatant was then used for evaluation of presence of cytokines using ELISA.
ELISA plates coated with antibodies for IL-12, IL-1β, or IL-10 (R&D Systems, USA) were used for the following study. To each well 50 μL of Assay Diluent RD1F was added after mixing well. 200 μL of sample (idoBR1 or extract), or control per well was added and covered with an adhesive strip. Following incubation for 2 hours at room temperature each well was aspirated and washed 4 times with Wash Buffer (400 μl). After the last wash, any remaining Wash Buffer was removed by aspirating or decanting. The plates were inverted and blotted against clean paper towels. To each well 200 μl of appropriate human conjugate was added and these then covered with a new adhesive strip and incubated for 1 hour at room temperature. The aspiration/wash was then repeated. 200 μL of Substrate Solution was then added to each well and further incubated for 20 minutes at room temperature protected from light. 50 μL of Stop Solution was added to each well. The colour in the wells was changed from blue to yellow. OD was measured within 30 minutes at 450 nm.

O=C(O)[C@@H]1NC[C@H](O)[C@@H](O)[C@@H]1O [idoBR1, (2R,3R,4R,5S)-3,4,5-trihydroxypiperidine-2-carboxylic acid] was tested, and the TNF-α production (TNF-α; 20 μg/ml + LPS) was 500** pg/ml, the TNF-α production (TNF-α; 40 μg/ml + LPS) was 470** pg/ml and the TNF-α production (TNF-α; 80 μg/ml + LPS) was 410*** pg/ml. The “Sialidase activity/mg of protein” value ([1]; 12.5 μg/mL + LPS, 4 hours) was 91.30, the “Sialidase activity/mg of protein” value ([1]; 12.5 μg/mL + LPS, 8 hours) was 129.95 and the “Sialidase activity/mg of protein” value ([1]; 12.5 μg/mL + LPS, 16 hours) was 186.34. The “Sialidase activity/mg of protein” value ([1]; 12.5 μg/mL + LPS, 24 hours) was 108.47, the RFU ([1]; 12.5 μg/ml) was 1610 RFU and the Sialidase activity/mg protein ([1]; 12.5 μg/ml) was 186.34. The “Relative sialidase activity/mg protein” value ([1]; 12.5 μg/ml) was 0.89, the “Sialidase activity/mg of protein” value ([1]; 25 μg/mL + LPS, 4 hours) was 86.48 and the “Sialidase activity/mg of protein” value ([1]; 25 μg/mL + LPS, 8 hours) was 121.84. The “Sialidase activity/mg of protein” value ([1]; 25 μg/mL + LPS, 16 hours) was 178.24, the “Sialidase activity/mg of protein” value ([1]; 25 μg/mL + LPS, 24 hours) was 103.85 and the RFU ([1]; 25 μg/ml) was 1540 RFU. The Sialidase activity/mg protein ([1]; 25 μg/ml) was 178.24, the “Relative sialidase activity/mg protein” value ([1]; 25 μg/ml) was 0.86 and the “Sialidase activity/mg of protein” value ([1]; 50 μg/mL + LPS, 4 hours) was 79.35. The “Sialidase activity/mg of protein” value ([1]; 50 μg/mL + LPS, 8 hours) was 109.77, the “Sialidase activity/mg of protein” value ([1]; 50 μg/mL + LPS, 16 hours) was 130.21 and the “Sialidase activity/mg of protein” value ([1]; 50 μg/mL + LPS, 24 hours) was 88.83. For the same compound, the RFU ([1]; 50 μg/ml) was 1125 RFU, the Sialidase activity/mg protein ([1]; 50 μg/ml) was 130.21 and the “Relative sialidase activity/mg protein” value ([1]; 50 μg/ml) was 0.63. The “Sialidase activity/mg of protein” value ([1]; 100 μg/mL + LPS, 4 hours) was 72.15, the “Sialidase activity/mg of protein” value ([1]; 100 μg/mL + LPS, 8 hours) was 99.32 and the “Sialidase activity/mg of protein” value ([1]; 100 μg/mL + LPS, 16 hours) was 115.16. For the same compound, the “Sialidase activity/mg of protein” value ([1]; 100 μg/mL + LPS, 24 hours) was 78.66, the RFU ([1]; 100 μg/ml) was 995 RFU and the Sialidase activity/mg protein ([1]; 100 μg/ml) was 115.16. For the same compound, the “Relative sialidase activity/mg protein” value ([1]; 100 μg/ml) was 0.55, the IL-12 (IL-12; 12.5 μg/mL) was 104.23 pg/mL and the “% reduction in IL-12 levels” value (IL-12; 12.5 μg/mL) was 11.22%. For the same compound, the IL-12 (IL-12; 25 μg/mL) was 97.37 pg/mL, the “% reduction in IL-12 levels” value (IL-12; 25 μg/mL) was 17.07% and the IL-12 (IL-12; 50 μg/mL) was 92.89 pg/mL. The “% reduction in IL-12 levels” value (IL-12; 50 μg/mL) was 20.88%, the IL-12 (IL-12; 100 μg/mL) was 88.60 pg/mL and the “% reduction in IL-12 levels” value (IL-12; 100 μg/mL) was 24.53%.
